Assay results published in ChEMBL document CHEMBL2157959, “Reactive metabolites of desipramine and clomipramine: The kinetics of formation and reactivity with DNA” (Bioorg Med Chem, 2012).

How the values were obtained:
[1] = Drug metabolism in sorensen buffer assessed as iminodibenzyl formation at pH 7.4 in the presence of HRP and H2O2 by GC/MS analysis; type: physicochemical
[2] = test system: HRP (horseradish peroxidase); test: Drug metabolism in sorensen buffer assessed as apparent Km for drug oxidation measured for 20 mins by Michaelis-Menten equation analysis in presence of HRP and H2O2; type: physicochemical; details: horseradish peroxidase (HRP) with H2O2 in Sorensen buffer
[3] = Induction of DNA degradation in calf thymus DNA at 2 mM after 2 hrs by PCI extraction-based spectrophotometric analysis in presence of HRP and H2O2; details: cattle, 2000 µM
[4] = Induction of DNA degradation in calf thymus DNA at 0.5 mM after 1 hr by agarose gel electrophoresis in presence of HRP and H2O2; details: cattle, 500 µM
[5] = Drug metabolism in sorensen buffer assessed as formation of reactive intermediate during drug oxidation at 92 uM at pH 7.4 up to 24 mins in the presence of HRP by UV/vis spectrophotometry; type: physicochemical; details: pH 7.4, 0.4 h
[6] = Drug metabolism in sorensen buffer assessed as formation of reactive intermediate during drug oxidation at 92 uM at pH 7.4 up to 24 mins in the presence of HRP and H2O2 by UV/vis spectrophotometry; type: physicochemical; details: pH 7.4, 0.4 h
[7] = Drug metabolism in sorensen buffer assessed as formation of reactive intermediate during drug oxidation at 92 uM at pH 7.4 up to 24 mins in the presence of H2O2 by UV/vis spectrophotometry; type: physicochemical; details: pH 7.4, 0.4 h
[8] = Drug metabolism in water assessed as formation of 3-chloroiminodibenzyl in the presence of HRP and H2O2 UV/Vis spectrophotometry; type: physicochemical; details: buffer
[9] = Drug metabolism in water assessed as formation of reactive intermediate during drug oxidation at 1 mM in the presence of HRP and H2O2 UV/vis spectrophotometry; type: physicochemical; details: buffer, 1000 µM

SMILES	Drug metabolism [1]	Km at 20 min [2] [mM]	Activity [3]	Activity [4]	Drug metabolism [5]	Drug metabolism [6]	Drug metabolism [7]	Drug metabolism [8]	Drug metabolism [9]
CNCCCN1c2ccccc2CCc2ccccc21.Cl [DESIPRAMINE HYDROCHLORIDE]	Active	4.4	Toxic	Toxic	Not Active	Active	Not Active		
CN(C)CCCN1c2ccccc2CCc2ccc(Cl)cc21.Cl [CLOMIPRAMINE HYDROCHLORIDE]			Toxic	Toxic				Active	Active
